For 16 compounds, inhibition in vivo and pest or weed control results are on record in patent US10287276B2, “Heteroaryl-1,2,4-triazole and heteroaryl-tetrazole compounds for controlling ectoparasites” (Elanco Tiergesundheit AG, priority 2016, dated 2019).

Some results are limits rather than exact numbers.

In experiment [1] the test system is Lice (Polyplax serrata). The experiment can be described thus: Activity in vivo against lice (Polyplax serrata) in mice (topical). To be noted: pour-on application, live lice on day +4 and +14, Henderson & Tilton formula, read-out: efficacy (EC90). The method, then: Activity In Vivo Against Lice (Polyplax serrata) in Mice (Topical) Mice naturally infected with P. serrata are treated with the formulated test compound on day 0 by pour-on application. On day +4 and +14, efficacy is evaluated by counting the number of live lice under a binocular. Efficacy at the two time points is expressed as a comparison of lice numbers counted on the same mouse before treatment, using the Henderson & Tilton formula, taking also into account lice numbers found on mice treated with the empty formulation (placebo group): [formula] n=number of lice, T=treated group, Co=control/placebo group.

Experiment [2] concerns Lucilla Cuprina (Australian sheep blowfly). The experiment can be described thus: Activity in vitro against Lucilla cuprina (Australian sheep blowfly), Assay A. To be noted: Lucilia cuprina, 96 h; at 32 ppm; eggs on agar-based medium, 4 days at 28° C. and 60% relative humidity; read-out: efficacy (EC80). The procedure:
Activity in vitro against Lucilla Cuprina (Australian sheep blowfly)—Assay A
Freshly laid blowfly eggs are used to seed a suitably formatted microplate containing the test substances to be evaluated for antiparasitic activity. Each compound is tested by serial dilution in order to determine its minimum efficacy dose. The test compounds are embedded in an agar-based nutritive medium allowing the full development of the eggs into 3rd instar larvae. The incubation lasts for 4 days at 28° C. and 60% relative humidity. Egg-hatching and ensuing larval development are also recorded to identify a possible growth-regulating activity.

In experiment [3] the test system is Rhipicephalus sanguineus (Dog Tick). The experiment can be described thus: Activity in vitro against Rhipicephalus sanguineus (dog tick), Assay A, contact test. The settings on record: Rhipicephalus sanguineus, 168 h, at 100 ppm, adult ticks, 28° C. and 80% relative humidity for 7 days, read-out: efficacy (EC80). The method, then: Activity In Vitro Against Rhipicephalus sanguineus (Dog Tick)—Assay A
A contact test is performed by pre-coating microplate with serial dilution of compound allowing evaluating anti-parasitic activity by contact against ticks. A mixed adult tick population is then distributed to each well of the plate and incubated at 28° C. and 80% relative humidity for 7 days, during which the effect of the test compound is monitored. Acaricidal activity is confirmed if and when adult ticks are dead.

For experiment [4], the system named is Ctenocephalides Felis (Cat Flea). The experiment can be described thus: Activity in vitro against Ctenocephalides felis (cat flea), Assay A. The settings on record: Ctenocephalides felis; at 100 ppm; adult fleas fed on treated blood for 24 h; dead fleas counted; read-out: efficacy (EC80). The procedure: Activity In Vitro Against Ctenocephalides Felis (Cat Flea)—Assay A
A mixed adult population of fleas is placed in a suitably formatted 96-well plate allowing fleas to access and feed on treated blood via an artificial feeding system. Fleas are fed on treated blood for 24 h, after which the compound effect is recorded. Insecticidal activity is determined on the basis of the number of dead fleas recovered from the feeding system.

Experiment [5] concerns Engorged Female Rhipicephalus microplus (Cattle Tick). The experiment can be described thus: Activity in vitro against engorged female Rhipicephalus microplus (cattle tick), contact test. To be noted: 672 h, organophosphorous-resistant Ultimo strain, evaluation 28 days later on mortality, oviposition and hatched larvae, read-out: efficacy (EC80). The procedure:
Activity In Vitro Against Engorged Female Rhipicephalus microplus (Cattle Tick)
A contact test is performed by pre-coating 6-well microplates with serial dilution of the compound to be evaluated for anti-parasitic activity. 10 engorged female ticks of the organophosphorous-resistant Ultimo strain are distributed to each well in triplicates. Plates are then incubated at 28° C. and 80% relative humidity. Evaluation takes place 28 days later based on mortality, oviposition and hatched larvae. […] Activity In Vivo Against Rhipicephalus sanguineus Nymphs on Mongolian Gerbils (Meriones unguiculatus) (Spray Application)

The test system of experiment [6] is Ctenocephalides Felis (Cat Flea). The experiment can be described thus: Activity in vitro against Ctenocephalides felis (cat flea), Assay B. To be noted: Ctenocephalides felis; at 10 ppm in bovine blood; % mortality at 48 hours post infestation; read-out: efficacy (EC50). The method, then: Activity In Vitro Against Ctenocephalides Felis (Cat Flea)—Assay B
Test compounds are added to organic bovine blood contained in an artificial feeding container. Compounds with known insecticidal activity are included to serve as positive controls. Newly emerged unfed adult fleas from a laboratory colony are aspirated into each vial. The test cages are maintained using the artificial feeding apparatus to allow ingestion of compound. Fleas are evaluated for % mortality at 48 hours post infestation. Fleas showing normal movement and/or jumping ability are considered viable and those showing no movement are scored as dead.

For experiment [7], the system named is Rhipicephalus sanguineus Nymphs. The experiment can be described thus: Activity in vivo against Rhipicephalus sanguineus nymphs on Mongolian gerbils. To be noted: topical, 0 h, pour on application day 0, tick number reduction vs placebo, Abbott's formula, read-out: efficacy (EC90). The procedure: On day 0, gerbils are treated with the test compound at a given dose by pour on application. On day +1 (+2), the animals are infested with nymphs of R. sanguineus. Ticks are left on the animals until full repletion. Seven days after infestation nymphs dropped off fully engorged are collected and counted. They are kept until molting to also evaluate growth regulating activity of the test compound. Efficacy in killing (and growth regulating) is expressed as a tick number (and molted tick number) reduction in comparison with a placebo treated group, using the Abbott's formula:
n=number of live ticks. T=treated group. Co=control/placebo group.

For the compound `CC(c1ncnn1-c1ncccn1)N(CCCF)C(=O)c1cc(Cl)cc(C(F)(F)F)c1` (stereo not drawn) [Example 24, 3-Chloro-N-(3-fluoropropyl)-N-[1-(2-pyrimidin-2-yl-1,2,4-triazol-3-yl)ethyl]-5-(trifluoromethyl)benzamide], in experiment [1], the inhibition in vivo at 32 mg/kg is > 90%. For the same compound, the pest or weed control at 32 ppm in experiment [2] was > 80%. Besides, the pest or weed control at 100 ppm in experiment [3] and in experiment [4] was > 80% in each case. Moreover, the pest or weed control at 200 ppm in experiment [5] is > 80%.

As to `CC(NC(=O)c1cccc(C#N)c1)c1ncnn1-c1ncccn1` (stereo not drawn) [Example 52, 3-Cyano-N-[1-(2-pyrimidin-2-yl-1,2,4-triazol-3-yl)ethyl]benzamide], in experiment [6], the pest or weed control at 10 ppm was > 50%.

With `CC(c1ncnn1-c1ccccn1)N(CC1CC1)C(=O)c1cncc(C(F)(F)F)c1` (stereo not drawn) [Example 9, N-(Cyclopropylmethyl)-N-[1-[2-(2-pyridyl)-1,2,4-triazol-3-yl]ethyl]-5-(trifluoromethyl)pyridine-3-carboxamide], in experiment [2], the pest or weed control at 32 ppm is > 80%. In addition, the pest or weed control at 100 ppm in experiment [3] and in experiment [4] was > 80% each time. In addition, the inhibition in vivo at 32 mg/kg in experiment [7] is > 90%. Besides, the pest or weed control at 200 ppm in experiment [5] is > 80%.

In the case of `CC(c1ncnn1-c1ncccn1)N(C)C(=O)c1cccc(C(N)=S)c1` (stereo not drawn) [Example 71, 3-Carbamothioyl-N-methyl-N-[1-(2-pyrimidin-2-yl-1,2,4-triazol-3-yl)ethyl]benzamide], in experiment [6], the pest or weed control at 10 ppm is > 50%.

Regarding `CC(c1ncnn1-c1ncccn1)N(CCF)C(=O)c1cc(Cl)cc(C(F)(F)F)c1` (stereo not drawn) [Example 23, 3-Chloro-N-(2-fluoroethyl)-N-[1-(2-pyrimidin-2-yl-1,2,4-triazol-3-yl)ethyl]-5-(trifluoromethyl)benzamide], the pest or weed control at 32 ppm in experiment [2] is > 80%. For the same compound, in experiment [7], the inhibition in vivo at 32 mg/kg is > 90%. The pest or weed control at 200 ppm in experiment [5] is > 80%.

On to `CC(c1ncnn1-c1ccccn1)N(CC#N)C(=O)c1cc(C(F)(F)F)cc(C(F)(F)F)c1` (stereo not drawn) [Example 14, N-(Cyanomethyl)-N-[1-[2-(2-pyridyl)-1,2,4-triazol-3-yl]ethyl]-3,5-bis(trifluoromethyl)benzamide], for which the pest or weed control at 32 ppm in experiment [2] is > 80%. For the same compound, the pest or weed control at 100 ppm in experiment [3] and in experiment [4] was > 80% each time. Further, the inhibition in vivo at 32 mg/kg in experiment [7] was > 90%. Also, in experiment [5], the pest or weed control at 200 ppm was > 80%.

In the case of `CC(c1ncnn1-c1ncccn1)N(CCCF)C(=O)c1cncc(C(F)(F)F)c1` (stereo not drawn) [Example 31, N-(3-Fluoropropyl)-N-[1-(2-pyrimidin-2-yl-1,2,4-triazol-3-yl)ethyl]-5-(trifluoromethyl)pyridine-3-carboxamide], the pest or weed control at 32 ppm in experiment [2] is > 80%. Besides, the pest or weed control at 100 ppm in experiment [3] and in experiment [4] was > 80% throughout. Moreover, the inhibition in vivo at 32 mg/kg in experiment [7] is > 90%.

As to `CCCN(C(=O)c1cc(Cl)cc(C(F)(F)F)c1)C(C)c1ncnn1-c1ccccn1` (stereo not drawn) [Example 8, 3-Chloro-N-propyl-N-[1-[2-(2-pyridyl)-1,2,4-triazol-3-yl]ethyl]-5-(trifluoromethyl)benzamide], in experiment [2], the pest or weed control at 32 ppm is > 80%. Moreover, the inhibition in vivo at 32 mg/kg in experiment [7] is > 90%. Moreover, in experiment [4], the pest or weed control at 100 ppm was > 80%. For the same compound, the pest or weed control at 200 ppm in experiment [5] is > 80%.

For the compound `C[C@@H](c1ncnn1-c1ccccn1)N(CC1CC1)C(=O)c1cc(C(F)(F)F)cc(C(F)(F)F)c1` [Example 44, N-(Cyclopropylmethyl)-N-[(1S)-1-[2-(2-pyridyl)-1,2,4-triazol-3-yl]ethyl]-3,5-bis(trifluoromethyl)benzamide], in experiment [2], the pest or weed control at 32 ppm was > 80%. Besides, in experiment [7], the inhibition in vivo at 32 mg/kg was > 90%. In addition, the pest or weed control at 100 ppm in experiment [4] is > 80%. In addition, the pest or weed control at 200 ppm in experiment [5] is > 80%.

Take `C#CCN(C(=O)c1cc(Cl)cc(OC(F)(F)F)c1)C(C)c1ncnn1-c1ncccn1` (stereo not drawn) [Example 36, 3-Chloro-N-prop-2-ynyl-N-[1-(2-pyrimidin-2-yl-1,2,4-triazol-3-yl)ethyl]-5-(trifluoromethoxy)-benzamide]: the inhibition in vivo at 32 mg/kg in experiment [1] is > 90%. Besides, in experiment [2], the pest or weed control at 32 ppm was > 80%. Also, the pest or weed control at 100 ppm in experiment [3] and in experiment [4] was > 80% throughout. Moreover, the pest or weed control at 200 ppm in experiment [5] is > 80%.

For `CC(c1ncnn1-c1ncccn1)N(CCCF)C(=O)c1cc(Cl)cc(OC(F)(F)F)c1` (stereo not drawn) [Example 25, 3-Chloro-N-(3-fluoropropyl)-N-[1-(2-pyrimidin-2-yl-1,2,4-triazol-3-yl)ethyl]-5-(trifluoromethoxy)benzamide], in experiment [1], the inhibition in vivo at 32 mg/kg is > 90%. Further, the pest or weed control at 32 ppm in experiment [2] is > 80%. The pest or weed control at 100 ppm in experiment [4] is > 80%. Further, the pest or weed control at 200 ppm in experiment [5] was > 80%.

Take `C[C@@H](c1ncnn1-c1ncccn1)N(CC1CC1)C(=O)c1cncc(C(F)(F)F)c1` [Example 45, N-(Cyclopropylmethyl)-N-[(1S)-1-(2-pyrimidin-2-yl-1,2,4-triazol-3-yl)ethyl]-5-(trifluoromethyl)pyridine-3-carboxamide]: the pest or weed control at 32 ppm in experiment [2] is > 80%. For the same compound, in experiment [7], the inhibition in vivo at 32 mg/kg is > 90%. In addition, in experiment [4], the pest or weed control at 100 ppm is > 80%. Further, the pest or weed control at 200 ppm in experiment [5] was > 80%.

On to `C#CCN(C(=O)c1cc(C(F)(F)F)cc(C(F)(F)F)c1)C(C)c1ncnn1-c1ccccn1` (stereo not drawn) [Example 15], for which, in experiment [1], the inhibition in vivo at 32 mg/kg was > 90%. For the same compound, the pest or weed control at 32 ppm in experiment [2] was > 80%. The pest or weed control at 100 ppm in experiment [3] and in experiment [4] was > 80% throughout. In addition, the pest or weed control at 200 ppm in experiment [5] was > 80%.

`CC(c1ncnn1-c1ncccn1)N(CCC(F)(F)F)C(=O)c1cc(Cl)cc(C(F)(F)F)c1` (stereo not drawn) [Example 26, 3-Chloro-N-[1-(2-pyrimidin-2-yl-1,2,4-triazol-3-yl)ethyl]-5-(trifluoromethyl)-N-(3,3,3-trifluoropropyl)benzamide]: the pest or weed control at 32 ppm in experiment [2] is > 80%. Moreover, the pest or weed control at 100 ppm in experiment [3] and in experiment [4] was > 80% throughout. Also, the inhibition in vivo at 32 mg/kg in experiment [7] was > 90%.

In the case of `CC(c1ncnn1-c1ncccn1)N(CC1CC1)C(=O)c1cccc(C#N)c1` (stereo not drawn) [Example 38, 3-Cyano-N-(cyclopropylmethyl)-N-[1-(2-pyrimidin-2-yl-1,2,4-triazol-3-yl)ethyl]benzamide], in experiment [1], the inhibition in vivo at 32 mg/kg was > 90%. In experiment [2], the pest or weed control at 32 ppm is > 80%. Also, the pest or weed control at 100 ppm in experiment [3] and in experiment [4] was > 80% throughout. Moreover, the pest or weed control at 200 ppm in experiment [5] is > 80%.

As to `CC(c1ncnn1-c1ncccn1)N(CCC(F)(F)F)C(=O)c1cncc(C(F)(F)F)c1` (stereo not drawn) [Example 29, N-[1-(2-Pyrimidin-2-yl-1,2,4-triazol-3-yl)ethyl]-5-(trifluoromethyl)-N-(3,3,3-trifluoropropyl)pyridine-3-carboxamide], in experiment [2], the pest or weed control at 32 ppm was > 80%. Besides, the pest or weed control at 100 ppm in experiment [3] and in experiment [4] was > 80% throughout. Besides, the inhibition in vivo at 32 mg/kg in experiment [7] was > 90%.
